23 compounds from patent publication US20240317706A1, “COMPOUNDS THAT MEDIATE PROTEIN DEGRADATION AND METHODS OF USE THEREOF” (Monte Rosa Therapeutics, Inc., priority 2021, published 2024) can be followed below.

For orientation: Dmax means the greatest extent of degradation seen. Lower therefore signals shallow degradation. The term Ki denotes a measure of affinity in units of concentration, obtained from inhibition or displacement.

The target of one assay is T1, CDK2 (Homo sapiens, UniProt P24941).
T1 construct: HEK293 clonal lines with CRISPR KI HiBiT tag on CDK2 proteins; host or cells: HEK293 clonal line, CRISPR knock-in HiBiT-CDK2, stably expressing LgBiT
Description: NanoBiT assay (CDK2 degradation). The settings on record: 24 hours; for Dmax: HEK293, HEK293 clonal line with CRISPR KI HiBiT tag on CDK2, Endurazine live cell substrate. The class given is cell-based. In outline:
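HEK293 cells with endogenous HiBiT-tagged CDK2 knock-in and stable LgBiT, with Endurazine live-cell substrate; cells were dosed with compound (30 μM stock) for 24 h at 37 °C, then luminescence was read. Response normalised to plate negative/positive controls and fitted to a 3-parameter logistic (hillslope=1) for EC50.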

A further assay concerns the target CRBN-DDB1 (Homo sapiens, UniProt Q96SW2). In words: Compound binding to CRBN by HTRF assay. The settings on record: CRBN-DDB1 2.5 nM, Cy5-Thalidomide 100 nM, 30 min; Ki from geometric mean IC50 by Cheng-Prustoff transformation. The method, then: Compound activity was monitored in a Homogenous Time-Resolved Fluorescence (HTRF) assay using 1-[5-({2-[2-(2-{[2-(2,6-dioxopiperidin-3-yl)-1,3-dioxo-2,3-dihydro-1H-isoindol-4-yl]oxy}acetamido)ethoxy]ethyl}carbamoyl)pentyl]-3,3-dimethyl-2-[(1E,3E)-5-[(2E)-1,3,3-trimethyl-5-sulfo-2,3-dihydro-1H-indol-2-ylidene]penta-1,3-dien-1-yl]-3H-indol-1-ium-5-sulfonate as a fluorescent probe. Biochemical assays were conducted in Greiner white 384 well HiBase plates (Cat. No 784075-25) in 10 μL total volume. A one pot detection solution of CRBN-DDB1 (2.5 nM), Anti-His Terbium Cryptate Gold (1×, PerkinElmer Cat. #: 61HI2TLB), and Cy5-Thalidomide (100 nM, Tenova Cat.: T52461) was prepared in 20 mM HEPES, 20 mM NaCl, 0.2 mM TCEP, 0.2 mM EDTA, and 0.005% Tween20 was dispensed to each assay plate. Compounds were stored in dry, ambient temperatures at 10 mM. A 10-point, 1:3 dilution series was prepared from 10 mM stock concentrations in Echo-compatible LDV plates. 10 nL of each compound dilution series was dispensed into assays wells using an Echo 650 (Labcyte inc. USA). 10 nL of 10 mM Lenalidomide was transferred into the active-control wells for the assay and 10 nL of DMSO was transferred into the neutral-control wells. The assay was then allowed to incubate for 30 min at ambient temperature after transferring compound. Plate measurements were taken on a Pherastar FSX (BMG Labtech, Germany) using the HTRF Red filter (Ex. 337 nm, em1: 620 nm, em2: 665 nm) (Flashes: 50, Integration time: 60-400 us, Z-height: 10 mm, Ratio-multiplier: 10,000). The HTRF signal was then subsequently normalized to the neutral and active controls. Analysis and IC50 values were derived using KNIME analytics (KNIME Zurich) transformation and fitting within Collaborative Drug Discovery (Collaborative Drug Discovery USA). Ki was derived from the geometric mean of the IC50 values using the Cheng-Prustoff transformation.
In general terms: In TR-FRET formats the signal depends on donor and acceptor labels being close together.

Chain of CRBN-DDB1 (Q96SW2 whole entry): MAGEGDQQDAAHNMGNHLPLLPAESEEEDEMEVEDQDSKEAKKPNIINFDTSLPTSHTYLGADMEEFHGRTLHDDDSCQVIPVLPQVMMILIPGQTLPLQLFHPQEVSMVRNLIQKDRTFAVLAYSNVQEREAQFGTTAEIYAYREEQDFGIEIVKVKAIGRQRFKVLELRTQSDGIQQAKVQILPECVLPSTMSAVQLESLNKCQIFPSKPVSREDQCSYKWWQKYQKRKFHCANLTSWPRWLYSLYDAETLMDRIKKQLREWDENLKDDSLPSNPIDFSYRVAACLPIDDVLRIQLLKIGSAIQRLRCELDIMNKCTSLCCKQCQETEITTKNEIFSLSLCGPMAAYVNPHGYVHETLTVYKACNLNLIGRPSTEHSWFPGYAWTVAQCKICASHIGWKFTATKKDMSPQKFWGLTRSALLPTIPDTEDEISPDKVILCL
Chain of CRBN-DDB1 (Q16531 whole entry partner): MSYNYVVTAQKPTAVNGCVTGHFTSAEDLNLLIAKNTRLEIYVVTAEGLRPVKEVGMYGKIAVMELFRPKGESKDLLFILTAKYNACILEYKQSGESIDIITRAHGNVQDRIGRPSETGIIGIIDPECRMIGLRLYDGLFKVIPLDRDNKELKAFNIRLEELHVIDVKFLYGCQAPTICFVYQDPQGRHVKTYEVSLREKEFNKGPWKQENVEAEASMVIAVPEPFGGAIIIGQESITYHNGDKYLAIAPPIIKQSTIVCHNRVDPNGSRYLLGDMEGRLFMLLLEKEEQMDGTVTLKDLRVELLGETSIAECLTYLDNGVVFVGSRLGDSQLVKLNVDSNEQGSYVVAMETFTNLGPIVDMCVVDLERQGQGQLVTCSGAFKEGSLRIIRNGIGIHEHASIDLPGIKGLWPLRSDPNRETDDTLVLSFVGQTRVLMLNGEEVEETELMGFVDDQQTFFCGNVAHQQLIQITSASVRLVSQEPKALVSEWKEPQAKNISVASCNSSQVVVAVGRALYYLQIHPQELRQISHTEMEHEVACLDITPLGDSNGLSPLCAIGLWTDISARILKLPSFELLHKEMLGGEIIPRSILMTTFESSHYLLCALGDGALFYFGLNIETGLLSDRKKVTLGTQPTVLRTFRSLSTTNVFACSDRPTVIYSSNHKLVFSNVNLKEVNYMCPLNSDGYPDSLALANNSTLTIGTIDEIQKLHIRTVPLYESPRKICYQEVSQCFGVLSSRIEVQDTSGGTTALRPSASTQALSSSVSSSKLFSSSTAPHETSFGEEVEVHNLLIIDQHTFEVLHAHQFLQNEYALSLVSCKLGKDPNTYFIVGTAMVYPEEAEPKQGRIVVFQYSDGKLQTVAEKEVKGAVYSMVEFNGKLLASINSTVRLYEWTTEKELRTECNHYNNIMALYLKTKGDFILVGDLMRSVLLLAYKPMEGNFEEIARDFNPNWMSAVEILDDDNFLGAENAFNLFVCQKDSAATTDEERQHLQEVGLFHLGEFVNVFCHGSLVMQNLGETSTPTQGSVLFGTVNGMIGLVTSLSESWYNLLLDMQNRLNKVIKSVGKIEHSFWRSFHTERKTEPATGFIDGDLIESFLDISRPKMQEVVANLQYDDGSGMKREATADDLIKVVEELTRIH

`O=C1CCC(N2Cc3ccc(CNC(=O)OC4CC5(CCCC5)C4)cc3C2=O)C(=O)N1` (stereo not shown) [Compound 121, spiro[3.4]octan-2-yl ((2-(2,6-dioxopiperidin-3-yl)-3-oxoisoindolin-5-yl)methyl)carbamate]: the Dmax on CDK2 lay in the range of 10 to 50%. For the same compound, at CRBN-DDB1, the Ki is 100 to 1000 nM.
With `O=C1CCC(N2Cc3c(F)cc(CNC(=O)OCC4CC5(CCC5)C4)cc3C2=O)C(=O)N1` (stereo not shown) [Compound 122, spiro[3.3]heptan-2-ylmethyl ((2-(2,6-dioxopiperidin-3-yl)-7-fluoro-3-oxoisoindolin-5-yl)methyl)carbamate], on CDK2, the greatest degradation seen (Dmax) was in the range of 50 to 80%. Moreover, the inhibitory constant (Ki) on CRBN-DDB1 was 100 to 1000 nM.
`O=C1CCC(N2Cc3cc(F)c(CNC(=O)OCC4CC5(CCC5)C4)cc3C2=O)C(=O)N1` (stereo not shown) [Compound 123, spiro[3.3]heptan-2-ylmethyl ((2-(2,6-dioxopiperidin-3-yl)-6-fluoro-3-oxoisoindolin-5-yl)methyl)carbamate] gave a Dmax on CDK2 of 10 to 50%. The Ki at CRBN-DDB1 lay in the range of 100 to 1000 nM.
`O=C1CCC(N2Cc3ccc(CNC(=O)OCCC4CC5(CCC5)C4)cc3C2=O)C(=O)N1` (stereo not shown) [Compound 124, 2-(spiro[3.3]heptan-2-yl)ethyl ((2-(2,6-dioxopiperidin-3-yl)-3-oxoisoindolin-5-yl)methyl)carbamate] had a Dmax at CDK2 of 10 to 50%. At CRBN-DDB1, this compound came in with a Ki of 100 to 1000 nM.
Turning to `O=C1CCC(N2Cc3ccc(CNC(=O)OCC4CC5(C4)CC(F)(F)C5)cc3C2=O)C(=O)N1` (stereo not shown) [Compound 125, (6,6-difluorospiro[3.3]heptan-2-yl)methyl ((2-(2,6-dioxopiperidin-3-yl)-3-oxoisoindolin-5-yl)methyl)carbamate], the Dmax on CDK2 was in the range of 10 to 50%. The inhibitory constant (Ki) on CRBN-DDB1 was in the range of 100 to 1000 nM.
Take `O=C1CCC(N2Cc3ccc(CNC(=O)OCC4CC5(CC5)C4)cc3C2=O)C(=O)N1` (stereo not shown) [Compound 126, spiro[2.3]hexan-5-ylmethyl ((2-(2,6-dioxopiperidin-3-yl)-3-oxoisoindolin-5-yl)methyl)carbamate]: the Dmax at CDK2 lay within 10 to 50%. The compound further came in with a Ki on CRBN-DDB1 of 100 to 1000 nM.
The corresponding values for `O=C1CCC(N2Cc3ccc(CNC(=O)OCC4CC5(C4)CC4(CCC4)C5)cc3C2=O)C(=O)N1` (stereo not shown) [Compound 127, dispiro[3.1.36.14]decan-2-ylmethyl((2-(2,6-dioxopiperidin-3-yl)-3-oxoisoindolin-5-yl)methyl)carbamate] are 50 to 80% and no more than 100 nM.
On CDK2, `O=C1CCC(N2Cc3ccc(CNC(=O)OCCCC4CCC4)cc3C2=O)C(=O)N1` (stereo not shown) [Compound 128, 3-cyclobutylpropyl ((2-(2,6-dioxopiperidin-3-yl)-3-oxoisoindolin-5-yl)methyl)carbamate] yielded a Dmax of 10 to 50%. In addition, the Ki at CRBN-DDB1 was 100 to 1000 nM.
`CC1(C)[C@H]2CC=C(CCOC(=O)NCc3ccc4c(c3)C(=O)N(C3CCC(=O)NC3=O)C4)[C@@H]1C2` (stereo partly drawn) [Compound 129, 2-((1R,5S)-6,6-dimethylbicyclo[3.1.1]hept-2-en-2-yl)ethyl ((2-(2,6-dioxopiperidin-3-yl)-3-oxoisoindolin-5-yl)methyl)carbamate] yielded a Dmax on CDK2 of 10 to 50%. Moreover, the Ki on CRBN-DDB1 was in the range of 100 to 1000 nM.
Compound `O=C1CCC(N2Cc3ccc(CNC(=O)OC4CCC5(CC4)CC5)cc3C2=O)C(=O)N1` (stereo not shown) [Compound 130, spiro[2.5]octan-6-yl ((2-(2,6-dioxopiperidin-3-yl)-3-oxoisoindolin-5-yl)methyl)carbamate] displayed a Dmax on CDK2 of 10 to 50%. This compound also showed an inhibition constant Ki at CRBN-DDB1 of 100 to 1000 nM.
`CC(C)(C)C12CC(COC(=O)NCc3ccc4c(c3)C(=O)N(C3CCC(=O)NC3=O)C4)(C1)C2` (stereo not shown) [Compound 131, (3-(tert-butyl)bicyclo[1.1.1]pentan-1-yl)methyl((2-(2,6-dioxopiperidin-3-yl)-3-oxoisoindolin-5-yl)methyl)carbamate]: the maximal degradation (Dmax) at CDK2 is 10 to 50%. Moreover, the inhibitory constant (Ki) at CRBN-DDB1 is 100 to 1000 nM.
For the compound `O=C1CCC(N2Cc3ccc(CNC(=O)OC[C@@H]4C[C@H]4c4ccccc4)cc3C2=O)C(=O)N1` (stereo partly drawn) [Compound 132, ((1R,2R)-2-phenylcyclopropyl)methyl ((2-(2,6-dioxopiperidin-3-yl)-3-oxoisoindolin-5-yl)methyl)carbamate], the Dmax on CDK2 fell in the range of 10 to 50%. The compound also gave a Ki on CRBN-DDB1 of 100 to 1000 nM.
On CDK2, `O=C1CCC(N2Cc3ccc(CNC(=O)OC4CCC5(CCC5)CC4)cc3C2=O)C(=O)N1` (stereo not shown) [Compound 133, spiro[3.5]nonan-7-yl ((2-(2,6-dioxopiperidin-3-yl)-3-oxoisoindolin-5-yl)methyl)carbamate] gave a maximal degradation (Dmax) of 10 to 50%. The inhibitory constant (Ki) on CRBN-DDB1 was in the range of 100 to 1000 nM.
In the case of `CC1(CCCCOC(=O)NCc2ccc3c(c2)C(=O)N(C2CCC(=O)NC2=O)C3)CC1` (stereo not shown) [Compound 134, 4-(1-methylcyclopropyl)butyl ((2-(2,6-dioxopiperidin-3-yl)-3-oxoisoindolin-5-yl)methyl)carbamate], on CDK2, the Dmax lay in the range of 10 to 50%. Further, the Ki on CRBN-DDB1 is no more than 100 nM.
`O=C1CCC(N2Cc3ccc(CNc4nnc(C5CC6(CCC6)C5)o4)c(O)c3C2=O)C(=O)N1` (stereo not shown) [Compound 135, 3-(7-hydroxy-1-oxo-6-(((5-(spiro[3.3]heptan-2-yl)-1,3,4-oxadiazol-2-yl)amino)methyl)isoindolin-2-yl)piperidine-2,6-dione] came in with a maximal degradation (Dmax) on CDK2 of 50 to 80%. The Ki at CRBN-DDB1 lay within 100 to 1000 nM.
The corresponding values for `O=C1CCC(N2Cc3ccc(CNc4nnc(C5CC6(CCC6)C5)o4)cc3C2=O)C(=O)N1` (stereo not shown) [Compound 136, 3-(1-oxo-6-(((5-(spiro[3.3]heptan-2-yl)-1,3,4-oxadiazol-2-yl)amino)methyl)isoindolin-2-yl)piperidine-2,6-dione] are 50 to 80% and 100 to 1000 nM.
Take `O=C1CCC(N2Cc3c(Br)cc(CNc4nnc(C5CC6(CCC6)C5)o4)c(O)c3C2=O)C(=O)N1` (stereo not shown) [Compound 137, 3-(4-bromo-7-hydroxy-1-oxo-6-(((5-(spiro[3.3]heptan-2-yl)-1,3,4-oxadiazol-2-yl)amino)methyl)isoindolin-2-yl)piperidine-2,6-dione]: the Dmax at CDK2 was in the range of 50 to 80%. For the same compound, the inhibition constant (Ki) at CRBN-DDB1 was no more than 100 nM.
At CDK2, `O=C1CCC(N2Cc3c(Br)cc(CNc4nnc(C5CC6(CCC6)C5)o4)cc3C2=O)C(=O)N1` (stereo not shown) [Compound 138, 3-(4-bromo-1-oxo-6-(((5-(spiro[3.3]heptan-2-yl)-1,3,4-oxadiazol-2-yl)amino)methyl)isoindolin-2-yl)piperidine-2,6-dione] yielded a Dmax of 50 to 80%. At CRBN-DDB1, this compound came in with a Ki of no more than 100 nM.
`O=C1CCC(N2Cc3c(cc(CNc4nnc(C5CC6(CCC6)C5)o4)cc3C(F)(F)F)C2=O)C(=O)N1` (stereo not shown) [Compound 139, 3-(1-oxo-6-(((5-(spiro[3.3]heptan-2-yl)-1,3,4-oxadiazol-2-yl)amino)methyl)-4-(trifluoromethyl)isoindolin-2-yl)piperidine-2,6-dione]: the “CDK2 NanoBiT Dmax (%)” value on CDK2 (HEK293 clonal line with CRISPR KI HiBiT tag on CDK2, Endurazine live cell substrate) is “C (C represents a Dmax value of >50% and ≤80%)”. Moreover, at CRBN-DDB1, the Ki was in the range of 100 to 1000 nM.
On CDK2, `O=C1CCC(N2Cc3c(Cl)cc(CNc4nnc(C5CC6(CCC6)C5)o4)cc3C2=O)C(=O)N1` (stereo not shown) [Compound 140, 3-(4-chloro-1-oxo-6-(((5-(spiro[3.3]heptan-2-yl)-1,3,4-oxadiazol-2-yl)amino)methyl)isoindolin-2-yl)piperidine-2,6-dione] returned a Dmax of 50 to 80%. The inhibitory constant (Ki) on CRBN-DDB1 lay within 100 to 1000 nM.
In turn, `O=C1CCC(N2Cc3ccc(CNc4nnc(C5CCCCC5)o4)cc3C2=O)C(=O)N1` (stereo not shown) [Compound 141, 3-(6-(((5-cyclohexyl-1,3,4-oxadiazol-2-yl)amino)methyl)-1-oxoisoindolin-2-yl)piperidine-2,6-dione] registered a Dmax at CDK2 of 10 to 50%. The compound further returned an inhibition constant (Ki) on CRBN-DDB1 of 100 to 1000 nM.
In the case of `O=C1CCC(N2Cc3c(F)cc(CNc4nnc(C5CC6(CCC6)C5)o4)cc3C2=O)C(=O)N1` (stereo not shown) [Compound 142, 3-(4-fluoro-1-oxo-6-(((5-(spiro[3.3]heptan-2-yl)-1,3,4-oxadiazol-2-yl)amino)methyl)isoindolin-2-yl)piperidine-2,6-dione], the Dmax at CDK2 was in the range of 50 to 80%. At CRBN-DDB1, this compound returned an inhibition constant (Ki) of 100 to 1000 nM.
For `O=C1CCC(N2Cc3c(cc(CNc4nnc(C5CC6(CCC6)C5)o4)cc3C(F)F)C2=O)C(=O)N1` (stereo not shown) [Compound 143, 3-(4-(difluoromethyl)-1-oxo-6-(((5-(spiro[3.3]heptan-2-yl)-1,3,4-oxadiazol-2-yl)amino)methyl)isoindolin-2-yl)piperidine-2,6-dione], the maximal degradation (Dmax) on CDK2 was 10 to 50%. Besides, the Ki on CRBN-DDB1 was no more than 100 nM.
